{
  "source": "patent US20050113292A1",
  "about": "(priority 2003, published 2005)",
  "key": {"[1]": {"system": "HIV-1 mediated cell-cell fusion (R8 virus)", "settings": "mediated cell-cell fusion (R8 virus)"}, "[2]": {"system": "T-tropic (R8) HIV-1", "settings": "T-tropic (R8)"}, "[3]": {"system": "M-tropic (BAL) HIV-1", "settings": "M-tropic (BAL)"}, "[4]": {"biological_target": "gp41 of T-tropic HIV-1 R8 virus (HIV-1 (R8))", "experiment": "cell-based or functional assay"}, "[5]": {"system": "R9 HIV-1 virus", "format": "cell-based"}},
  "note": "Like-named read-outs stand apart in the source and are kept apart here.",
  "data": [
    {"molecule": "CC(C)C[C@H](NC(=O)[C@H](CO)NC(=O)[C@H](C)NC(=O)[C@H](Cc1c[nH]c2ccccc12)NC(=O)[C@H](CCCCN)NC(=O)[C@H](CC(=O)O)NC(=O)[C@H](CC(C)C)NC(=O)[C@H](CCC(=O)O)NC(=O)[C@H](CC(C)C)NC(=O)[C@H](CC(C)C)NC(=O)[C@H](CCC(=O)O)NC(=O)[C@H](CCC(N)=O)NC(=O)[C@H](CCC(=O)O)NC(=O)[C@H](CC(N)=O)NC(=O)[C@H](CCCCN)NC(=O)[C@H](CCC(=O)O)NC(=O)[C@H](CCC(N)=O)NC(=O)[C@H](CCC(N)=O)NC(=O)[C@H](CC(N)=O)NC(=O)[C@H](CCC(N)=O)NC(=O)[C@@H]1CSC(C(=O)NCCCC[C@H](NC(=O)CCNC(=O)C2N[C@H](C(=O)N[C@@H](CCC(N)=O)C(=O)N[C@@H](CC(N)=O)C(=O)N[C@@H](CCC(N)=O)C(=O)N[C@@H](CCC(N)=O)C(=O)N[C@@H](CCC(=O)O)C(=O)N[C@@H](CCCCN)C(=O)N[C@@H](CC(N)=O)C(=O)N[C@@H](CCC(=O)O)C(=O)N[C@@H](CCC(N)=O)C(=O)N[C@@H](CCC(=O)O)C(=O)N[C@@H](CC(C)C)C(=O)N[C@@H](CC(C)C)C(=O)N[C@@H](CCC(=O)O)C(=O)N[C@@H](CC(C)C)C(=O)N[C@@H](CC(=O)O)C(=O)N[C@@H](CCCCN)C(=O)N[C@@H](Cc3c[nH]c4ccccc34)C(=O)N[C@@H](C)C(=O)N[C@@H](CO)C(=O)N[C@@H](CC(C)C)C(=O)N[C@@H](Cc3c[nH]c4ccccc34)C(=O)N[C@@H](CC(N)=O)C(=O)N[C@@H](Cc3c[nH]c4ccccc34)C(=O)N[C@@H](Cc3ccccc3)C(=O)O)CS2)C(=O)N[C@@H](CCCCNC(=O)CNC(=O)C2N[C@H](C(=O)N[C@@H](CCC(N)=O)C(=O)N[C@@H](CC(N)=O)C(=O)N[C@@H](CCC(N)=O)C(=O)N[C@@H](CCC(N)=O)C(=O)N[C@@H](CCC(=O)O)C(=O)N[C@@H](CCCCN)C(=O)N[C@@H](CC(N)=O)C(=O)N[C@@H](CCC(=O)O)C(=O)N[C@@H](CCC(N)=O)C(=O)N[C@@H](CCC(=O)O)C(=O)N[C@@H](CC(C)C)C(=O)N[C@@H](CC(C)C)C(=O)N[C@@H](CCC(=O)O)C(=O)N[C@@H](CC(C)C)C(=O)N[C@@H](CC(=O)O)C(=O)N[C@@H](CCCCN)C(=O)N[C@@H](Cc3c[nH]c4ccccc34)C(=O)N[C@@H](C)C(=O)N[C@@H](CO)C(=O)N[C@@H](CC(C)C)C(=O)N[C@@H](Cc3c[nH]c4ccccc34)C(=O)N[C@@H](CC(N)=O)C(=O)N[C@@H](Cc3c[nH]c4ccccc34)C(=O)N[C@@H](Cc3ccccc3)C(=O)O)CS2)C(=O)N[C@@H](CO)C(=O)N[C@@H](CO)C(=O)N[C@@H](C)C(N)=O)N1)C(=O)N[C@@H](Cc1c[nH]c2ccccc12)C(=O)N[C@@H](CC(N)=O)C(=O)N[C@@H](Cc1c[nH]c2ccccc12)C(=O)N[C@@H](Cc1ccccc1)C(=O)O", "note": "(stereo partly drawn) [Compound 3α-C24]", "values": [
      {"measurement": "IC50", "setting": "[1]", "result": 290, "unit": "nM"},
      {"measurement": "IC50", "setting": "[2]", "result": 310, "unit": "nM"},
      {"measurement": "IC50", "setting": "[3]", "result": 36, "unit": "nM"}
    ]},
    {"molecule": "CC(C)C[C@H](NC(=O)[C@H](CO)NC(=O)[C@H](C)NC(=O)[C@H](Cc1c[nH]c2ccccc12)NC(=O)[C@H](CCCCN)NC(=O)[C@H](CC(=O)O)NC(=O)[C@H](CC(C)C)NC(=O)[C@H](CCC(=O)O)NC(=O)[C@H](CC(C)C)NC(=O)[C@H](CC(C)C)NC(=O)[C@H](CCC(=O)O)NC(=O)[C@H](CCC(N)=O)NC(=O)[C@H](CCC(=O)O)NC(=O)[C@H](CC(N)=O)NC(=O)[C@H](CCCCN)NC(=O)[C@H](CCC(=O)O)NC(=O)[C@H](CCC(N)=O)NC(=O)[C@H](CCC(N)=O)NC(=O)[C@H](CC(N)=O)NC(=O)[C@H](CCC(N)=O)NC(=O)[C@@H]1CSC(C(=O)NCCCC[C@H](NC(=O)CCNC(=O)C2N[C@H](C(=O)N[C@@H](CCC(N)=O)C(=O)N[C@@H](CC(N)=O)C(=O)N[C@@H](CCC(N)=O)C(=O)N[C@@H](CCC(N)=O)C(=O)N[C@@H](CCC(=O)O)C(=O)N[C@@H](CCCCN)C(=O)N[C@@H](CC(N)=O)C(=O)N[C@@H](CCC(=O)O)C(=O)N[C@@H](CCC(N)=O)C(=O)N[C@@H](CCC(=O)O)C(=O)N[C@@H](CC(C)C)C(=O)N[C@@H](CC(C)C)C(=O)N[C@@H](CCC(=O)O)C(=O)N[C@@H](CC(C)C)C(=O)N[C@@H](CC(=O)O)C(=O)N[C@@H](CCCCN)C(=O)N[C@@H](Cc3c[nH]c4ccccc34)C(=O)N[C@@H](C)C(=O)N[C@@H](CO)C(=O)N[C@@H](CC(C)C)C(=O)N[C@@H](Cc3c[nH]c4ccccc34)C(=O)N[C@@H](CC(N)=O)C(=O)N[C@@H](Cc3c[nH]c4ccccc34)C(=O)N[C@@H](Cc3ccccc3)C(=O)O)CS2)C(=O)N[C@@H](CO)C(=O)N[C@@H](CO)C(=O)N[C@@H](C)C(N)=O)N1)C(=O)N[C@@H](Cc1c[nH]c2ccccc12)C(=O)N[C@@H](CC(N)=O)C(=O)N[C@@H](Cc1c[nH]c2ccccc12)C(=O)N[C@@H](Cc1ccccc1)C(=O)O", "note": "(stereo partly drawn) [Compound 2α-C24]", "values": [
      {"measurement": "IC50", "setting": "[1]", "result": 38, "unit": "nM"},
      {"measurement": "IC50", "setting": "[2]", "result": 80, "unit": "nM"},
      {"measurement": "IC50", "setting": "[3]", "result": 67, "unit": "nM"}
    ]},
    {"molecule": "N36 (from UniProt P04578 546-581) (peptide)", "values": [
      {"measurement": "IC50, HIV-1 mediated cell-cell fusion (syncytium formation), R8 virus", "setting": "[4]", "result": "> 1000", "unit": "nM"}
    ]},
    {"molecule": "CC[C@H](C)[C@H](NC(=O)CNC(=O)[C@H](Cc1c[nH]c2ccccc12)NC(=O)[C@@H](NC(=O)[C@@H](NC(=O)[C@H](CC(C)C)NC(=O)[C@H](CCC(N)=O)NC(=O)[C@H](CC(C)C)NC(=O)[C@H](CC(C)C)NC(=O)[C@H](Cc1c[nH]cn1)NC(=O)[C@H](CCC(N)=O)NC(=O)[C@H](CCC(N)=O)NC(=O)[C@H](C)NC(=O)[C@H](CCC(=O)O)NC(=O)[C@@H](NC(=O)[C@H](C)NC(=O)[C@H](CCCNC(=N)N)NC(=O)[C@H](CC(C)C)NC(=O)[C@H](CC(C)C)NC(=O)[C@H](CC(N)=O)NC(=O)[C@H](CC(N)=O)NC(=O)[C@H](CCC(N)=O)NC(=O)[C@H](CCC(N)=O)NC(=O)[C@H](CCC(N)=O)NC(=O)[C@@H](NC(=O)[C@@H](NC(=O)CNC(=O)[C@H](CO)NC(=O)[C@@H]1CSC(C(=O)NCCCC[C@H](NC(=O)CCNC(=O)C2N[C@H](C(=O)N[C@@H](CO)C(=O)NCC(=O)N[C@H](C(=O)N[C@H](C(=O)N[C@@H](CCC(N)=O)C(=O)N[C@@H](CCC(N)=O)C(=O)N[C@@H](CCC(N)=O)C(=O)N[C@@H](CC(N)=O)C(=O)N[C@@H](CC(N)=O)C(=O)N[C@@H](CC(C)C)C(=O)N[C@@H](CC(C)C)C(=O)N[C@@H](CCCNC(=N)N)C(=O)N[C@@H](C)C(=O)N[C@H](C(=O)N[C@@H](CCC(=O)O)C(=O)N[C@@H](C)C(=O)N[C@@H](CCC(N)=O)C(=O)N[C@@H](CCC(N)=O)C(=O)N[C@@H](Cc3c[nH]cn3)C(=O)N[C@@H](CC(C)C)C(=O)N[C@@H](CC(C)C)C(=O)N[C@@H](CCC(N)=O)C(=O)N[C@@H](CC(C)C)C(=O)N[C@H](C(=O)N[C@H](C(=O)N[C@@H](Cc3c[nH]c4ccccc34)C(=O)NCC(=O)N[C@H](C(=O)N[C@@H](CCCCN)C(=O)N[C@@H](CCC(N)=O)C(=O)N[C@@H](CC(C)C)C(=O)N[C@@H](CCC(N)=O)C(=O)N[C@@H](C)C(=O)N[C@@H](CCCNC(=N)N)C(=O)N[C@H](C(=O)N[C@@H](CC(C)C)C(=O)O)[C@@H](C)CC)[C@@H](C)CC)C(C)C)[C@@H](C)O)[C@@H](C)CC)C(C)C)[C@@H](C)CC)CS2)C(=O)N[C@@H](CCCCNC(=O)CNC(=O)C2N[C@H](C(=O)N[C@@H](CO)C(=O)NCC(=O)N[C@H](C(=O)N[C@H](C(=O)N[C@@H](CCC(N)=O)C(=O)N[C@@H](CCC(N)=O)C(=O)N[C@@H](CCC(N)=O)C(=O)N[C@@H](CC(N)=O)C(=O)N[C@@H](CC(N)=O)C(=O)N[C@@H](CC(C)C)C(=O)N[C@@H](CC(C)C)C(=O)N[C@@H](CCCNC(=N)N)C(=O)N[C@@H](C)C(=O)N[C@H](C(=O)N[C@@H](CCC(=O)O)C(=O)N[C@@H](C)C(=O)N[C@@H](CCC(N)=O)C(=O)N[C@@H](CCC(N)=O)C(=O)N[C@@H](Cc3c[nH]cn3)C(=O)N[C@@H](CC(C)C)C(=O)N[C@@H](CC(C)C)C(=O)N[C@@H](CCC(N)=O)C(=O)N[C@@H](CC(C)C)C(=O)N[C@H](C(=O)N[C@H](C(=O)N[C@@H](Cc3c[nH]c4ccccc34)C(=O)NCC(=O)N[C@H](C(=O)N[C@@H](CCCCN)C(=O)N[C@@H](CCC(N)=O)C(=O)N[C@@H](CC(C)C)C(=O)N[C@@H](CCC(N)=O)C(=O)N[C@@H](C)C(=O)N[C@@H](CCCNC(=N)N)C(=O)N[C@H](C(=O)N[C@@H](CC(C)C)C(=O)O)[C@@H](C)CC)[C@@H](C)CC)C(C)C)[C@@H](C)O)[C@@H](C)CC)C(C)C)[C@@H](C)CC)CS2)C(=O)N[C@@H](CO)C(=O)N[C@@H](CO)C(=O)N[C@@H](C)C(N)=O)N1)[C@@H](C)CC)C(C)C)[C@@H](C)CC)[C@@H](C)O)C(C)C)C(=O)N[C@@H](CCCCN)C(=O)N[C@@H](CCC(N)=O)C(=O)N[C@@H](CC(C)C)C(=O)N[C@@H](CCC(N)=O)C(=O)N[C@@H](C)C(=O)N[C@@H](CCCNC(=N)N)C(=O)N[C@H](C(=O)N[C@@H](CC(C)C)C(=O)O)[C@@H](C)CC", "note": "(stereo partly drawn) [Compound 3α-N36]", "values": [
      {"measurement": "percentage of inhibition of cell infection", "setting": "[5]; 6 μM", "result": "around 10%"},
      {"measurement": "percentage of inhibition of cell infection", "setting": "[5]; 200 μM", "result": "~100", "unit": "%"},
      {"measurement": "IC50", "setting": "[1]", "result": 39, "unit": "nM"},
      {"measurement": "IC50", "setting": "[2]", "result": 55.4, "unit": "nM"},
      {"measurement": "IC50", "setting": "[3]", "result": 7.2, "unit": "nM"}
    ]}
  ]
}
